Measurements published in article PMC8213057, “Targeting ALK2: An Open Science Approach to Developing Therapeutics for the Treatment of Diffuse Intrinsic Pontine Glioma” (Journal of Medicinal Chemistry, 2020).

Tests used:
[1] = biological target: PAK6 (Homo sapiens, UniProt Q9NQU5); test: biochemical; settings: read-out: % enzyme activity, 1 μM; Run 1, Run 2
[2] = biological target: SSTK/TSSK6 (Homo sapiens, UniProt Q9BXA6); settings: 1 μM; Run 1, Run 2
[3] = biological target: T1, ALK5/TGFBR1 (Homo sapiens, UniProt P36897); test: 375-member kinase panel; type: biochemical; settings: Run 1, Run 2; for % enzyme activity: 1 μM; for remaining activity at 1 µM: read-out: % enzyme activity, 1 μM
T1 construct: purchased Reaction Biology Corporation
T1 sequence (P36897 34-503): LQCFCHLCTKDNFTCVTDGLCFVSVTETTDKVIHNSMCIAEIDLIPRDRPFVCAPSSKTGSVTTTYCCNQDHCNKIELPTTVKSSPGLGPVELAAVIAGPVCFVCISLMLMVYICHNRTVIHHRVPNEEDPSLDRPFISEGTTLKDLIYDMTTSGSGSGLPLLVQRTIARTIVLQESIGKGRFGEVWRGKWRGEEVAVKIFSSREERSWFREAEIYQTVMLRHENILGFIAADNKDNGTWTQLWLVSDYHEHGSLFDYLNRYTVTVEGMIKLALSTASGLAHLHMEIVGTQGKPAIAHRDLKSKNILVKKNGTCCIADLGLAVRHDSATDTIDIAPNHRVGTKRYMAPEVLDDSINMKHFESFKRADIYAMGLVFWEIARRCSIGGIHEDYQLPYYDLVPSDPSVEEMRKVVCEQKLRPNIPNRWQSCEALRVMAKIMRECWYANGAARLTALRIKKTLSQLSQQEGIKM

[4] = biological target: CAMKK2 (Homo sapiens, UniProt Q96RR4); settings: 1 μM; Run 1, Run 2
[5] = biological target: ABL2/ARG (Homo sapiens, UniProt P42684); settings: 1 μM; Run 1, Run 2
[6] = biological target: T2, PKCepsilon (Homo sapiens, UniProt Q02156); settings: 1 μM; Run 1, Run 2
T2 sequence (Q02156 1-737): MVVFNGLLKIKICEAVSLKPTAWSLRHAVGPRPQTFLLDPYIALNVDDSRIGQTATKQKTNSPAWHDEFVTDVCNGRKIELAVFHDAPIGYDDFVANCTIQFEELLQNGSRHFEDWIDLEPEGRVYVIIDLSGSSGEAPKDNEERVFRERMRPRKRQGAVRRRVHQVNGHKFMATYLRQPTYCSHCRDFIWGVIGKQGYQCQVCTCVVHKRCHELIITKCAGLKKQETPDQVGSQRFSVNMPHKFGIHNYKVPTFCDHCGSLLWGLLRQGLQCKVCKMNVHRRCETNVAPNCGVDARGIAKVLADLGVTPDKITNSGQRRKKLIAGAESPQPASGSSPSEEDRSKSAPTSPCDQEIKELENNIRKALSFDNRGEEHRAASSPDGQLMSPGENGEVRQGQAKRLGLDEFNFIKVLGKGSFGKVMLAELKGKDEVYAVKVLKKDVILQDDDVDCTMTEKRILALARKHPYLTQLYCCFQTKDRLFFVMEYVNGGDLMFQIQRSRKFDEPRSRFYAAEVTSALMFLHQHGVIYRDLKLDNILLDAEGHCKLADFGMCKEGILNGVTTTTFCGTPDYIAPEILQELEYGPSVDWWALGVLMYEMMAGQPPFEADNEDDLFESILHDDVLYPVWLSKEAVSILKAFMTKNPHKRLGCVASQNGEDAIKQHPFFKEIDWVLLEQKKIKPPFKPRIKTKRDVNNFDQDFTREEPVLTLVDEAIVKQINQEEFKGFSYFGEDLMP

[7] = biological target: DMPK2 (Homo sapiens, UniProt Q6DT37); settings: 1 μM; Run 1, Run 2
[8] = biological target: T3, ARAF (Homo sapiens, UniProt P10398); settings: 1 μM; Run 1, Run 2
T3 sequence (P10398 1-606): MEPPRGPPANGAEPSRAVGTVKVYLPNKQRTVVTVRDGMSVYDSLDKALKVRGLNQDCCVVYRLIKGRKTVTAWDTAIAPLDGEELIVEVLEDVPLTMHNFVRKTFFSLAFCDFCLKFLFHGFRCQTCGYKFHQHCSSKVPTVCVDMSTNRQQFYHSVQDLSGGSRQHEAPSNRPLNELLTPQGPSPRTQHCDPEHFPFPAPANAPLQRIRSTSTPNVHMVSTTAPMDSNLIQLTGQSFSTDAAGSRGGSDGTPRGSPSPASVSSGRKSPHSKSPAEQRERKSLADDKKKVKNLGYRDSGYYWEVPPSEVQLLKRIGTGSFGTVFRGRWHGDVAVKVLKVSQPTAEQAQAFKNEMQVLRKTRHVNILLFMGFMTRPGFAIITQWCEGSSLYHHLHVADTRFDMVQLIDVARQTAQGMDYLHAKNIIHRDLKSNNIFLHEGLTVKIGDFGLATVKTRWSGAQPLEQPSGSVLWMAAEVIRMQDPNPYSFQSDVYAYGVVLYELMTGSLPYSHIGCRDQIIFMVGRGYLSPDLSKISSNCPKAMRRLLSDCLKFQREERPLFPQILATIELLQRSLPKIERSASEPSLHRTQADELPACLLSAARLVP

[9] = biological target: CDK6/cyclin D1 (Homo sapiens, UniProt Q00534); settings: 1 μM; Run 1, Run 2
[10] = biological target: SIK3 (Homo sapiens, UniProt Q9Y2K2); settings: 1 μM; Run 1, Run 2
[11] = biological target: CYP2C19
[12] = biological target: ERBB2/HER2 (Homo sapiens, UniProt P04626); test: biochemical; settings: read-out: % enzyme activity, 1 μM; Run 1, Run 2
ERBB2/HER2, sequence (P04626 23-1255): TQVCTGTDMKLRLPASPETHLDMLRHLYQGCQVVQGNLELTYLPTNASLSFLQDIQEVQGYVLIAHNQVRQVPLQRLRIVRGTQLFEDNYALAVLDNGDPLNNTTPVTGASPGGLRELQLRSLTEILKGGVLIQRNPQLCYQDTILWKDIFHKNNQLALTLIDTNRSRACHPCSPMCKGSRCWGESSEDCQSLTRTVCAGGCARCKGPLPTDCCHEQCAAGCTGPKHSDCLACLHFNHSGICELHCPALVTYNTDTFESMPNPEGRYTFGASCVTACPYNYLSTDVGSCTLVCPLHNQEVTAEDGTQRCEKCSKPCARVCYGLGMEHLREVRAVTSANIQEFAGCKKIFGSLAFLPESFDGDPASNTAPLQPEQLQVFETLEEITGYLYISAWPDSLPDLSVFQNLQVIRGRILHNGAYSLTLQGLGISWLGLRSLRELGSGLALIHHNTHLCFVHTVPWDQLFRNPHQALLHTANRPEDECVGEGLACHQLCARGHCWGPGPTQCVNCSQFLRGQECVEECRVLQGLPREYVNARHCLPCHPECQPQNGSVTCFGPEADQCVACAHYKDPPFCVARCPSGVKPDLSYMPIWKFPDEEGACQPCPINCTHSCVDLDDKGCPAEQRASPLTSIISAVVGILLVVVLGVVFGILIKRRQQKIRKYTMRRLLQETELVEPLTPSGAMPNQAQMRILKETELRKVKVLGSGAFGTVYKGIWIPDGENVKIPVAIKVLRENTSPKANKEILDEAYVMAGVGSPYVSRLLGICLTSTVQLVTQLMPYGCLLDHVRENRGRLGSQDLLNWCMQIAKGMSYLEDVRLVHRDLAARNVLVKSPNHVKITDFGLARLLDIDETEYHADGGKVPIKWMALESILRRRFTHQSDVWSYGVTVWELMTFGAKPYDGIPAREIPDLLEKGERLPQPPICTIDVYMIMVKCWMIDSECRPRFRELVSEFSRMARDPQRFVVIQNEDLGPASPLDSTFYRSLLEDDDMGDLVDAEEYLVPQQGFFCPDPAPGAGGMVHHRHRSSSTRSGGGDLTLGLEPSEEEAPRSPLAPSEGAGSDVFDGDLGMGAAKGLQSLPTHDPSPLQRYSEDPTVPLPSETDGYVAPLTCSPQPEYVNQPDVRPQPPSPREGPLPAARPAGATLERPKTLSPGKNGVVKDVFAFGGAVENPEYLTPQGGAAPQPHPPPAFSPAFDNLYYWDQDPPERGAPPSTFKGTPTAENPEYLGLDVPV

PAK6, sequence (Q9NQU5 whole entry): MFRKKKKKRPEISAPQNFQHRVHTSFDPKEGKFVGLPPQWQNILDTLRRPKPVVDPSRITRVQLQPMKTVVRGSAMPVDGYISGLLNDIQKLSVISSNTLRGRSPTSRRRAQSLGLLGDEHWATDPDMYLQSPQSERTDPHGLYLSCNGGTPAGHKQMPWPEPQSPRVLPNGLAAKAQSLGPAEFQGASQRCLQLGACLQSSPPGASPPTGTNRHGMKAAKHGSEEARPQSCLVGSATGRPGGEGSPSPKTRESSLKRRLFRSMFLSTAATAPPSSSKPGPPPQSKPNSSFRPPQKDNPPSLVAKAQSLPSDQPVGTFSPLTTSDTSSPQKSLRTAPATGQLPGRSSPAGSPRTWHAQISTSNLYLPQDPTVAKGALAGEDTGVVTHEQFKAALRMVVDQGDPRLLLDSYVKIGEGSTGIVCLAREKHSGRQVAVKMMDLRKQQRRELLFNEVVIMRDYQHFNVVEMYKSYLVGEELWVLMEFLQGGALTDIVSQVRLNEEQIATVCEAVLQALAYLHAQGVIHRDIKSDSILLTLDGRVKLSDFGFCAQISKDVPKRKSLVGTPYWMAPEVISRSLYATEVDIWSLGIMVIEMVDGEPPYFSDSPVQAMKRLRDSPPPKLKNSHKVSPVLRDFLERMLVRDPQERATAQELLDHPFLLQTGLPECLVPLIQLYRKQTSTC
SIK3, sequence (Q9Y2K2 whole entry): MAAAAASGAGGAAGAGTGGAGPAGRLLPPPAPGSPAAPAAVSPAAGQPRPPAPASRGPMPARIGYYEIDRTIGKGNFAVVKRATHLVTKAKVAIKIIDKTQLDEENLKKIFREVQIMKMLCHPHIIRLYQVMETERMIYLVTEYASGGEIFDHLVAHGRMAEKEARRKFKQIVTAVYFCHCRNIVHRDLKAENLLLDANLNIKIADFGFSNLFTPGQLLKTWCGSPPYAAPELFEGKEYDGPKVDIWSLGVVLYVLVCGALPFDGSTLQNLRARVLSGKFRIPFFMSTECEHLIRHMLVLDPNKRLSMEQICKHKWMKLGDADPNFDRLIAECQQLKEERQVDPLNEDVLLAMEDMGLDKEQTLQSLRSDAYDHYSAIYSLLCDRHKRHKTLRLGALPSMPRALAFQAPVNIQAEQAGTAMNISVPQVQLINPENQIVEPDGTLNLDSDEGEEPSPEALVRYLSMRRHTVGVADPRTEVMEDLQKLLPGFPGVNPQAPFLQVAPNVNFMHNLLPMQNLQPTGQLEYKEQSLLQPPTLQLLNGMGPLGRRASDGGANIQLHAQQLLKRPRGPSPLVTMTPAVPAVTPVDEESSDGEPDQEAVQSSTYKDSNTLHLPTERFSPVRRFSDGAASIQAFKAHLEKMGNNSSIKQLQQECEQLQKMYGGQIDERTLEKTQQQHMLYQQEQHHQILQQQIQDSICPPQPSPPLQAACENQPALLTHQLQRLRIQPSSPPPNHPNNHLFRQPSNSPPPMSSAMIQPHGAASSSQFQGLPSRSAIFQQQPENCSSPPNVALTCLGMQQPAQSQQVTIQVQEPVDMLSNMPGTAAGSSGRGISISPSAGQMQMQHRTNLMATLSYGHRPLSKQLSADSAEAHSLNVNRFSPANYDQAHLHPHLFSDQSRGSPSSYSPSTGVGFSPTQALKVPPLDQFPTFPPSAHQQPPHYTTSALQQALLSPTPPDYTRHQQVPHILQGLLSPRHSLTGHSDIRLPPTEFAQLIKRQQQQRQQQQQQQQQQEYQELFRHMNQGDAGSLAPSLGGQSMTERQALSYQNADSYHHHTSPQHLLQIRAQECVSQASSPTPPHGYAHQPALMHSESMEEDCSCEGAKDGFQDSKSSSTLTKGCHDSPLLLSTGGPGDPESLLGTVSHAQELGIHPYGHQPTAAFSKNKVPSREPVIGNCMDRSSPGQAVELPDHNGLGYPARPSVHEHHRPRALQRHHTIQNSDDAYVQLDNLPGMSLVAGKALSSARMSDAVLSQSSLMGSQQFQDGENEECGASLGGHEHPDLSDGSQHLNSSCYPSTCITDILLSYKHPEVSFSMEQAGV
DMPK2, sequence (Q6DT37 whole entry): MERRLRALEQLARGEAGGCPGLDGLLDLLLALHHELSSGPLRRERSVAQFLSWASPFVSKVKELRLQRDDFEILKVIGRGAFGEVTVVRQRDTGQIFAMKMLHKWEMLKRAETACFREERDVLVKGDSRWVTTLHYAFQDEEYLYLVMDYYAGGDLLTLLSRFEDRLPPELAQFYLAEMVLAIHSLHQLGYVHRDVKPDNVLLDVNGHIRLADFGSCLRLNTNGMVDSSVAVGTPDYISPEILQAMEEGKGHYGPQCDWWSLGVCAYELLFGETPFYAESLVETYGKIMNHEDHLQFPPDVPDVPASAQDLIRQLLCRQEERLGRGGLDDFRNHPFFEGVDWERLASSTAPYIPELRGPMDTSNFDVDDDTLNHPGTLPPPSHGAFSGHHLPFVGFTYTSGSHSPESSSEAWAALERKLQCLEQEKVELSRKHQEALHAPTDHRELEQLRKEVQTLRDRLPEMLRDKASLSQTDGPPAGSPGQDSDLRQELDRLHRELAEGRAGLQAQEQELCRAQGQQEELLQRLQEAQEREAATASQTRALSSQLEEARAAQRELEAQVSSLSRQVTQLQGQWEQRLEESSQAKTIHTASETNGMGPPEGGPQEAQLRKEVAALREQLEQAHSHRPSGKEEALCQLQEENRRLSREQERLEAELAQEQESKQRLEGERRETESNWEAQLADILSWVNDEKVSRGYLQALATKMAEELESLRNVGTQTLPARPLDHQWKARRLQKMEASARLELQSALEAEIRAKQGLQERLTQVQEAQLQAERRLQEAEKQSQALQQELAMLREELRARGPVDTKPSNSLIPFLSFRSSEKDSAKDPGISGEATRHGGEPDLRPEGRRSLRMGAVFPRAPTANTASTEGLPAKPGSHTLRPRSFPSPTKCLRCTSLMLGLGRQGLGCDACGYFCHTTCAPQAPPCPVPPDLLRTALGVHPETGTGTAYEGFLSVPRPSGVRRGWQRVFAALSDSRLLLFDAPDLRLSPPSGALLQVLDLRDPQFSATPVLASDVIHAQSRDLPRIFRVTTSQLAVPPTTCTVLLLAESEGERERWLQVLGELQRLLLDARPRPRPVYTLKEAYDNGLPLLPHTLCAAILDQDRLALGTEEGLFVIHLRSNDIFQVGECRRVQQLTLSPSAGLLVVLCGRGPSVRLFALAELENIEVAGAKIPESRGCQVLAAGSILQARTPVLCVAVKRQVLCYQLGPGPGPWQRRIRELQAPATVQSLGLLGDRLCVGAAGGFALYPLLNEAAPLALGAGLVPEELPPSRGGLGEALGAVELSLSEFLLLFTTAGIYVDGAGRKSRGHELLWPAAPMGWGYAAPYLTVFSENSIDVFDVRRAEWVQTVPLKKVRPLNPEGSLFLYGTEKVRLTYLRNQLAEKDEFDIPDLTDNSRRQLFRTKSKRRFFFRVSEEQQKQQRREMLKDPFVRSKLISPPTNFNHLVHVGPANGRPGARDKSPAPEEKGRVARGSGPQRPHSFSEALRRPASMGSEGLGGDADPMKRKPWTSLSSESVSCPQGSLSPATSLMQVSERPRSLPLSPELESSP
SSTK/TSSK6, sequence (Q9BXA6 whole entry): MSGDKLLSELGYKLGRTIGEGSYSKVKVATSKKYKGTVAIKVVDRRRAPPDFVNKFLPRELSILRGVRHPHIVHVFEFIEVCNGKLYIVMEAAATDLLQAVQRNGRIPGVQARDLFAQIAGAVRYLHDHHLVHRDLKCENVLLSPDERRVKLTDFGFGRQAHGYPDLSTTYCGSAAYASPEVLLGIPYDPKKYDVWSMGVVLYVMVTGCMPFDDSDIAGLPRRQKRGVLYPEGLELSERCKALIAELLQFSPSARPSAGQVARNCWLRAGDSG

SMILES | remaining activity at 1 µM [1] | % enzyme activity [2] | % enzyme activity [3] | remaining activity at 1 µM [3] | % enzyme activity [4] | % enzyme activity [5] | % enzyme activity [6] | % enzyme activity [7] | % enzyme activity [8] | % enzyme activity [9] | % enzyme activity [10] | CYP inhibition [11] | remaining activity at 1 µM [12]
COc1cc(-c2cncc(-c3ccc(N4CCN(C)CC4)cc3)c2C)cc(F)c1C(N)=O [Compound 26a, 2-Fluoro-6-methoxy-4-(4-methyl-5-(4-(4-methylpiperazin-1-yl)phenyl)pyridin-3-yl)benzamide] | 102% | 107.86% | 82.28% | 82.5% | 70.52% | 95.77% | 96.64% | 82.52% | 28.83% | 97.80% | 58.19% | > 50 µM | 89.7%
COc1cc(-c2cncc(-c3ccc(N4C[C@@H](C)N(C)[C@@H](C)C4)cc3)c2C)cc(F)c1C(N)=O [Compound 26c, 2-Fluoro-6-methoxy-4-(4-methyl-5-(4-((3R,5S)-3,4,5-trimethylpiperazin-1-yl)phenyl)pyridin-3-yl)benzamide] | 96.3% | 98.04% | 96.60% | 97.2% | 75.78% | 96.59% | 105.76% | 86.97% | 43.32% | 92.80% | 82.93% | > 50 µM | 96.8%
